Experimental data from patent US5230998A, “Method for the prescreening of drugs targeted to the V3 hypervariable loop of the HIV-1 envelope glycoprotein gp 120” (priority 1991, dated 1993).

Columns and labels:
[1] = biological target: T1, HIV-1 gp120 V3 hypervariable loop (Human immunodeficiency virus type 1 group M subtype B, UniProt P03375); experiment: biochemical; type: binding; conditions: excess of serum proteins in medium
T1 construct: Polystyrene plates coated with recombinant gp120 and gp160, respectively; purchased American Bio-Technologies, Inc., Cambridge, Mass; host or cells: baculovirus expression system
Procedure: Wells of 96 well polystyrene plates (Immulon 2, Dynatech Laboratories, Inc., Chantilly, Va.) were coated with synthetic peptides (200 μl; 20μg/ml in 0.1 M Tris-HCl, pH 8.8) overnight at 20° C. The peptides were from the sequence of HIV-1, clone BH 10 envelope glycoproteins gp120 and gp41 (Neurath, A. R., Strick, N., and Lee, E. Y. S. (1990), "B-cell Epitope Mapping of Human Immunodeficiency virus (HIV-1) Envelope Glycoprotein with Long (19 to 36-residue) Synthetic Peptides", J. Gen. Virol., 71., 85-95) and from V3 hypervariable loops of 21 distinct HIV-1 isolates (clones) Neurath, A. R., and Strick, N., (1990), "Confronting the Hypervariability of an Immunodominant Epitope Eliciting Virus Neutralizing Antibodies from the Envelope Glycoprotein of the Human Immunodeficiency Virus Type 1 (HIV-1)", Molec. Immunol., 27, 539-549. The latter peptides corresponded to full-length V3 loops generated by disulfide bonds between N- and C- terminal cysteine residues. After washing with 0.14 M NaCl, 0.01 M Tris, 0.02% NaN3 (TS), the wells were postcoated with a mixture of bovine serum albumin (BSA) and gelatine (10 and 2.5 mg/ml, respectively) in TS. BSA was omitted from the postcoating solution for RIA tests in which antibodies to ATA were used. Polystyrene plates coated with recombinant gp120 and gp160, respectively, (500 ng/well; from American Bio-Technologies, Inc., Cambridge, Mass. and MicroGeneSys, Inc., West Haven, Conn., respectively) were also used for RIA and ELISA tests.
To define sites on gp120/gp41 reacting with ATA, the inhibitory effect of this compound was studied by RIA tests using gp120- and gp160-coated wells, respectively, and antisera (final dilutions 1:150) against synthetic peptides from the entire sequence of gp120/gp41 of HIV-1 BH 10. The preparation and biological properties of these antisera were described elsewhere (Neurath et al., (1990), J. Gen. Virol., 71, 85-95). Each of the antisera was diluted in a mixture of fetal bovine serum and goat serum (9:1) containing 0.1% Tween 20, adjusted to pH 8. ATA (final concentration 50 μg/ml) was added in one set of assays, but was omitted from a parallel set. After incubation overnight at 25° C., the plates were washed with TS. Attached rabbit IgG was detected using ^125 I-labeled anti-rabbit IgG, as described before (Neurath et al., 1990, J. Gen. Virol., 71, 85-95). Similarly, the inhibitory effect of ATA on the reaction of peptides derived from gp120/gp41 and of peptides derived from V3 hypervariable loops from gp120 of distinct HIV-1 isolates with the respective homologous anti-peptide antisera was studied. In the latter case, antisera were diluted 1:1,000 for the assays.
(§1) The inhibitory effect of ATA and of other compounds on the reaction between antibodies with predetermined specificity and gp120 (or synthetic peptides derived from it) was determined from the formula: [formula] An analogous formula was used to calculate the percentage of inhibition from optical density readings resulting from ELISA tests.
Chemicals other than ATA were screened for inhibitory activity essentially as described above. […] Chemicals with inhibitory activity established by the respective immunoassays were screened further for antiviral activity.
Commercially available ATA is a mixture of monomers and polymers of distinct molecular masses (Gonzalez et al., (1979) Biochem. Biophys. Acta, 562, 534-545); Cushman et al., (1991), J. Chem., 34, 329-337). The monomers [molecular mass (M.W.)=422.4 daltons] were separated from the polymers. ATA (20 mg/ml in the form of free acid neutralized with 0.4 M NaOH) was dialyzed against H2 O in a dialysis membrane with a molecular mass cutoff of 500 daltons.

CD4 receptor = conditions: literature; cited from earlier work
[2] = test system: gp120 expressed on the surface of HIV-1-infected cells; conditions: literature; cited from earlier work
[3] = test system: HIV-1 reverse transcriptase; conditions: literature; cited from earlier work
[4] = test system: V3 hypervariable loop peptides from gp120 from 21 distinct HIV-1 isolates (clones); experiment: Inhibition of the reaction of V3 hypervariable loop peptides from 21 HIV-1 isolates with homologous anti-peptide antisera; type: binding; conditions: 21 HIV-1 isolates (clones); antisera 1:1,000; FIG. 7A, 7B
From the text: FIGS. 7A and 7B are bar graphs depicting the inhibitory effect of deuteroporphyrin IX,2,4 (4,2) hydroxyethylvinyl (FIG. 7A) and of meso-tetra(4-carboxyphenyl)porphine (FIG. 7B) on the reaction of full-length V3 hypervariable loop peptides from gp120 from 21 distinct HIV-1 isolates (clones) with homologous anti-peptide antisera. Peptide coated wells of polystyrene plates were reacted in the presence and absence of the inhibitory compounds with the respective rabbit antisera diluted 1:1,000, and the attachment of rabbit IgG was subsequently determined using ^125 I-labeled anti-rabbit IgG. […]
(§2) To define sites on gp120/gp41 reacting with ATA, the inhibitory effect of this compound was studied by RIA tests using gp120- and gp160-coated wells, respectively, and antisera (final dilutions 1:150) against synthetic peptides from the entire sequence of gp120/gp41 of HIV-1 BH 10. […] Attached rabbit IgG was detected using ^125 I-labeled anti-rabbit IgG, as described before (Neurath et al., 1990, J. Gen. Virol., 71, 85-95). […]
as §1

[5] = test system: HIV-1 isolates IIIB, MN, SF2 and RF; experiment: Antiviral activity of porphyrin derivatives for distinct HIV-1 isolates in promonocytic U937 cells (FIG. 12A); type: cell-based
Procedure: (§3) FIG. 12A and FIG. 12B are graphs depicting antiviral activity of selected porphyrin derivatives for distinct HIV-1 isolates in T-lymphocytic (MT-2) (FIG. 12B) and a promonocytic (U937) (FIG. 12A) cell lines. […] Therefore, the antiviral activity against HIV-1 RF could not be tested in this cell line. Note that the higher the value of EC50, the less efficient is the drug for inhibiting HIV-1 replication.
(§4) Four of the porphyrin derivatives (see FIG. 12) were tested for their inhibiting activity and the replication of four distinct HIV-1 isolates: IIIB, MN, SF2 and RF in two different cell lines, U937 and MT-2.

[6] = test system: HIV-1 isolates IIIB, MN, SF2 and RF; experiment: Antiviral activity of porphyrin derivatives for distinct HIV-1 isolates in T-lymphocytic MT-2 cells (FIG. 12B); type: cell-based
Procedure: as §3, §4

V3 peptide from HIV-1 SC = biological target: T2, V3 peptide from HIV-1 SC (Human immunodeficiency virus type 1 (SC ISOLATE), UniProt P05878); experiment: Inhibition of the reaction of antibodies with the V3 peptide from HIV-1 SC (FIG. 7B); type: binding; conditions: as compared with HXB-2 and HXB-3 V3 peptides
T2 construct: cut from Env gp160
From the text: FIGS. 7A and 7B are bar graphs depicting the inhibitory effect of deuteroporphyrin IX,2,4 (4,2) hydroxyethylvinyl (FIG. 7A) and of meso-tetra(4-carboxyphenyl)porphine (FIG. 7B) on the reaction of full-length V3 hypervariable loop peptides from gp120 from 21 distinct HIV-1 isolates (clones) with homologous anti-peptide antisera. Peptide coated wells of polystyrene plates were reacted in the presence and absence of the inhibitory compounds with the respective rabbit antisera diluted 1:1,000, and the attachment of rabbit IgG was subsequently determined using ^125 I-labeled anti-rabbit IgG.
as §2, §1

[7] = test system: gp120 V3 hypervariable loop; experiment: Binding of gp120 to monoclonal antibodies specific for the V3 hypervariable loop in the absence of other proteins; set-up: species or system HIV-1; conditions: 20-fold excess over gp120, absence of other proteins
From the text: The inhibitory effect of dextran sulfate on gp120-antibody binding under these conditions was confirmed. The apparently contradictory results concerning binding of dextran sulfate to gp120 obtained by different methods can probably be explained by differences in equilibrium constants defining the binding reaction of gp120 with ATA and dextran sulfate, respectively. […] The relatively weak binding of dextran sulfate to the V3 hypervariable loop may contribute to the ineffectiveness of this substance in inhibiting HIV-1 replication in vivo (Mitsuya et al., (1990), Science, 249, 1533-1544).

[8] = test system: gp120 V3 hypervariable loop; conditions: 20-fold excess over gp120, absence of other proteins; cited from earlier work
HIV-1 [9] = conditions: literature; cited from earlier work
HIV-1 [10] = conditions: literature; cited from earlier work; remark: listed apart in the source

T2 sequence (P05878 296-330): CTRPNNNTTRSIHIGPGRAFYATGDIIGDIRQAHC

Compound | reaction with the V3 hypervariable loop as determined by RIA (ELISA) tests [1] | inhibition of the reaction of gp120 on infected cells with monoclonal anti-gp120 antibodies [2] | inhibition of HIV-1 reverse transcriptase [3] | further results
Cc1cc(-c2ccc(/N=N/c3ccc4c(S(=O)(=O)O)cc(S(=O)(=O)O)c(N)c4c3O)c(C)c2)ccc1/N=N/c1ccc2c(S(=O)(=O)O)cc(S(=O)(=O)O)c(N)c2c1O [substance #28, Evans Blue] | did not react with the V3 hypervariable loop | inhibit the reaction of gp120 expressed on the surface of HIV-1-infected cells with monoclonal anti-gp120 antibodies | inhibited the reverse transcriptase of HIV-1 | inhibition of the interaction with CD4 receptor (CD4 receptor): inhibited the interaction of the CD4 receptor for HIV-1
CC1=C/C(=C(\c2ccc(N)c(S(=O)(=O)[O-])c2)c2ccc(N)c(S(=O)(=O)O)c2)C=C(S(=O)(=O)[O-])C1=N.[Na+].[Na+] [substance #145, acid fuchsin] | did not react with the V3 hypervariable loop |  | inhibited the reverse transcriptase of HIV-1 | 
O=C(O)c1ccc(-c2c3nc(c(-c4ccc(C(=O)O)cc4)c4ccc([nH]4)c(-c4ccc(C(=O)O)cc4)c4nc(c(-c5ccc(C(=O)O)cc5)c5ccc2[nH]5)C=C4)C=C3)cc1 [substance #160, meso-tetra (4-carboxyphenyl) porphine] |  |  |  | inhibition of interaction between V3 hypervariable loop peptides and homologous antibodies [4]: inhibited the interaction between V hypervariable loop peptides and homologous antibodies corresponding to all 21 HIV-1 isolates (clones) tested; inhibition of HIV-1 replication in U937 cells [5]: most effective agent with broad specificity; inhibition of HIV-1 replication in MT-2 cells [6]: most effective agent with broad specificity; inhibitory activity on the reaction of antibodies with the V3 peptide (V3 peptide from HIV-1 SC): relatively low inhibitory activity
Cc1ccc(C(=O)Nc2ccc(S(=O)(=O)O)c3cc(S(=O)(=O)O)cc(S(=O)(=O)O)c23)cc1NC(=O)c1cccc(NC(=O)Nc2cccc(C(=O)Nc3cc(C(=O)Nc4ccc(S(=O)(=O)O)c5cc(S(=O)(=O)O)cc(S(=O)(=O)O)c45)ccc3C)c2)c1 [suramin, reference compound] |  | inhibit the reaction of gp120 expressed on the surface of HIV-1-infected cells with monoclonal anti-gp120 antibodies | inhibited the reverse transcriptase of HIV-1 | 
deuteroporphyrin IX, 2,4 (4,2) hydroxy-ethyl vinyl [substance #151] |  |  |  | inhibition of interaction between V3 hypervariable loop peptides and homologous antibodies [4]: inhibited the interaction between V hypervariable loop peptides and homologous antibodies corresponding to all 21 HIV-1 isolates (clones) tested
dextran sulfate | did not react with the V3 hypervariable loop | inhibit the reaction of gp120 expressed on the surface of HIV-1-infected cells with monoclonal anti-gp120 antibodies |  | inhibitory effect on gp120-antibody binding [7]: confirmed; blocking of binding of gp120 to monoclonal antibodies [8]: blocked; inhibition of HIV-1 replication in vivo (HIV-1 [9]): ineffectiveness
hemin [substance #13] |  |  |  | inhibition of HIV-1 replication / antiviral activity (HIV-1 [10]): anti-HIV-1 activity
heparin |  | inhibit the reaction of gp120 expressed on the surface of HIV-1-infected cells with monoclonal anti-gp120 antibodies |  | 
pentosan polysulfate |  | inhibit the reaction of gp120 expressed on the surface of HIV-1-infected cells with monoclonal anti-gp120 antibodies |  | 
